Measurements from the NIST ThermoML archive (doi:10.1021/je8003468).

Conditions: Ring tensiometer

CO [methanol]
Conditions | surface tension liquid-gas [mN/m]
279.11 K | 23.87
282.59 K | 23.63
288.3 K | 23.14
293.37 K | 22.73
296.97 K | 22.43
301.54 K | 21.99
307.31 K | 21.43
311.76 K | 21
317.66 K | 20.43
322.9 K | 19.83
326.56 K | 19.42
330.01 K | 19.09
333.81 K | 18.63
